Data taken from ChEMBL document CHEMBL6109105, “Design, synthesis and antibacterial evaluation of oxazolidinone derivatives containing N-methylglycyl or quaternary ammonium salts” (Bioorg Med Chem, 2025).
Converted amounts (≈) assume the structure as drawn.

How the values were obtained:
Staphylococcus aureus = assay: Antibacterial activity against Staphylococcus aureus ATCC 29213 assessed as inhibition of bacterial growth incubated for 16 to 18 hrs by microbroth dilution method; assay type: functional; conditions: time 16-18 hrs, read-out: MIC100
Enterococcus faecalis = assay: Antibacterial activity against Enterococcus faecalis ATCC 29212 assessed as inhibition of bacterial growth incubated for 16 to 18 hrs by microbroth dilution method; assay type: functional; conditions: time 16-18 hrs, read-out: MIC100
Escherichia coli = assay: Antibacterial activity against Escherichia coli ATCC 25922 assessed as inhibition of bacterial growth incubated for 16 to 18 hrs by microbroth dilution method; assay type: functional; conditions: time 16-18 hrs, read-out: MIC100
[1] = test system: Stenotrophomonas maltophilia; assay: Antibacterial activity against Stenotrophomonas maltophilia ATCC 17808 assessed as inhibition of bacterial growth incubated for 16 to 18 hrs by microbroth dilution method; assay type: functional; conditions: time 16-18 hrs, read-out: MIC100
[2] = Hemolytic activity in sheep RBC assessed as hemolysis incubated for 1 hrs by microplate reader analysis; assay type: toxicity, cell-based, Ovis aries, Erythrocyte; conditions: sheep red blood cells

MIC (Staphylococcus aureus)	MIC (Enterococcus faecalis)	MIC (Escherichia coli)	MIC [1]	SMILES	HC50 at 1 h [2]
128 µg/mL	4 µg/mL	> 128 µg/mL	> 128 µg/mL	CC(=O)NC[C@H]1CN(c2ccc(N3CCN(C(=O)C[N+](C)(C)Cc4ccccc4)CC3)c(F)c2)C(=O)O1.[Br-]	> 1280 µg/mL
16 µg/mL (≈ 31.3 µM)	4 µg/mL (≈ 7.82 µM)	> 128 µg/mL	> 128 µg/mL	CC(=O)NC[C@H]1CN(c2ccc(N3CCN(C(=O)CN(C)Cc4cccc(C)c4)CC3)c(F)c2)C(=O)O1	> 1280 µg/mL
64 µg/mL	64 µg/mL	> 128 µg/mL	> 128 µg/mL	CCC[N+](C)(C)CC(=O)N1CCN(c2ccc(N3C[C@H](CNC(C)=O)OC3=O)cc2F)CC1.[Br-]	> 1280 µg/mL
8 µg/mL (≈ 15 µM)	2 µg/mL (≈ 3.76 µM)	> 128 µg/mL	> 128 µg/mL	CC(=O)NC[C@H]1CN(c2ccc(N3CCN(C(=O)CN(C)Cc4cccc(Cl)c4)CC3)c(F)c2)C(=O)O1	> 1280 µg/mL
8 µg/mL (≈ 13.9 µM)	4 µg/mL (≈ 6.94 µM)	> 128 µg/mL	> 128 µg/mL	CC(=O)NC[C@H]1CN(c2ccc(N3CCN(C(=O)CN(C)Cc4cccc(Br)c4)CC3)c(F)c2)C(=O)O1	> 1280 µg/mL
128 µg/mL	128 µg/mL	> 128 µg/mL	> 128 µg/mL	Br.CC(=O)NC[C@H]1CN(c2ccc(N3CCN(C(=O)C[N+](C)(C)Cc4ccc([N+](=O)[O-])cc4)CC3)c(F)c2)C(=O)O1	> 1280 µg/mL
64 µg/mL	32 µg/mL	> 128 µg/mL	> 128 µg/mL	CC[N+](C)(C)CC(=O)N1CCN(c2ccc(N3C[C@H](CNC(C)=O)OC3=O)cc2F)CC1.[Br-]	> 1280 µg/mL
16 µg/mL (≈ 32.2 µM)	4 µg/mL (≈ 8.04 µM)	> 128 µg/mL	> 128 µg/mL	CC(=O)NC[C@H]1CN(c2ccc(N3CCN(C(=O)CN(C)Cc4ccccc4)CC3)c(F)c2)C(=O)O1	> 1280 µg/mL
16 µg/mL (≈ 30.3 µM)	2 µg/mL (≈ 3.79 µM)	> 128 µg/mL	> 128 µg/mL	COc1ccccc1CN(C)CC(=O)N1CCN(c2ccc(N3C[C@H](CNC(C)=O)OC3=O)cc2F)CC1	> 1280 µg/mL

The remaining lines, values behind:

SMILES	MIC (Staphylococcus aureus)	MIC (Enterococcus faecalis)	MIC (Escherichia coli)	MIC [1]	HC50 at 1 h [2]
CC(=O)NC[C@H]1CN(c2ccc(N3CCN(C(=O)CN(C)Cc4cccc(C#N)c4)CC3)c(F)c2)C(=O)O1	8 µg/mL (≈ 15.3 µM)	4 µg/mL (≈ 7.65 µM)	> 128 µg/mL	> 128 µg/mL	> 1280 µg/mL
CN[C@H](CC(C)C)C(=O)N[C@H]1C(=O)N[C@@H](CC(N)=O)C(=O)N[C@H]2C(=O)N[C@H]3C(=O)N[C@H](C(=O)N[C@H](C(=O)O)c4cc(O)cc(O)c4-c4cc3ccc4O)[C@H](O)c3ccc(c(Cl)c3)Oc3cc2cc(c3O[C@@H]2O[C@H](CO)[C@@H](O)[C@H](O)[C@H]2O[C@H]2C[C@](C)(N)[C@H](O)[C@H](C)O2)Oc2ccc(cc2Cl)[C@H]1O [VANCOMYCIN]	–	1 µg/mL (≈ 0.69 µM)	–	–	–
CC(=O)NC[C@H]1CN(c2ccc(N3CCN(C(=O)CN(C)Cc4ccc(Cl)cc4)CC3)c(F)c2)C(=O)O1	16 µg/mL (≈ 30.1 µM)	2 µg/mL (≈ 3.76 µM)	> 128 µg/mL	> 128 µg/mL	> 1280 µg/mL
CC(=O)NC[C@H]1CN(c2ccc(N3CCN(C(=O)CN(C)Cc4cccc([N+](=O)[O-])c4)CC3)c(F)c2)C(=O)O1	8 µg/mL (≈ 14.7 µM)	2 µg/mL (≈ 3.69 µM)	> 128 µg/mL	> 128 µg/mL	> 1280 µg/mL
CC(=O)NC[C@H]1CN(c2ccc(N3CCN(C(=O)CN(C)Cc4ccc(C(F)(F)F)cc4)CC3)c(F)c2)C(=O)O1	16 µg/mL (≈ 28.3 µM)	2 µg/mL (≈ 3.54 µM)	> 128 µg/mL	> 128 µg/mL	> 1280 µg/mL
COc1cccc(CN(C)CC(=O)N2CCN(c3ccc(N4C[C@H](CNC(C)=O)OC4=O)cc3F)CC2)c1	16 µg/mL (≈ 30.3 µM)	2 µg/mL (≈ 3.79 µM)	> 128 µg/mL	> 128 µg/mL	> 1280 µg/mL
C[C@@H](O)[C@H]1C(=O)N2C(C(=O)O)=C(S[C@@H]3CN[C@H](C(=O)N(C)C)C3)[C@H](C)[C@H]12 [MEROPENEM]	–	–	0.031 µg/mL (≈ 0.0808 µM)	0.031 µg/mL (≈ 0.0808 µM)	–
